# In ChEMBL document CHEMBL3885881, “DrugMatrix”:
# Species: Rattus norvegicus
# Test: DrugMatrix - Regimen: Daily Repeat
# Assay type: toxicity, organism-based, Sprague-Dawley
# Set-up: regimen Daily Repeat, gender Male, age 6-8 weeks
# Conditions: in vivo, po, route oral GAVAGE, vehicle .5 % CMC; for BASOPHIL / EOSINOPHIL / ERYTHROCYTE COUNT / HEMATOCRIT / HEMOGLOBIN / LEUKOCYTE COUNT / LYMPHOCYTE / MEAN CORPUSCULAR HEMOGLOBIN / MEAN CORPUSCULAR HEMOGLOBIN CONCENTRATION / MEAN CORPUSCULAR VOLUME / NEUTROPHIL / PLATELET COUNT: tissue Blood; for ALANINE AMINOTRANSFERASE / ALBUMIN / ALKALINE PHOSPHATASE / ASPARTATE AMINOTRANSFERASE / BLOOD UREA NITROGEN / CHLORIDE / CHOLESTEROL / CREATINE PHOSPHOKINASE / CREATININE / GLUCOSE / PHOSPHORUS / POTASSIUM / SODIUM / TOTAL BILIRUBIN / TOTAL PROTEIN: tissue Plasma
# [1] = 0 mg/kg, 72 h, dose level Control, time 3 day
# [2] = 0 mg/kg, 120 h, dose level Control, time 5 day
# [3] = 22 mg/kg, 72 h, dose level High, time 3 day
# [4] = 22 mg/kg, 120 h, dose level High, time 5 day
# [5] = […], 72 h, dose 2.4 mg/Kg, dose level Low, time 3 day
# [6] = […], 120 h, dose 2.4 mg/Kg, dose level Low, time 5 day
compound,measurement,setting,value
Cc1nc2n(c(=O)c1CCN1CCC(c3noc4cc(F)ccc34)CC1)CCCC2 [RISPERIDONE],BASOPHIL,[1],0%
same,EOSINOPHIL,[1],0%
same,ERYTHROCYTE COUNT,[1],6.19 x10E6/uL
same,HEMATOCRIT,[1],36.94%
same,HEMOGLOBIN,[1],14.58 G/DL
same,LEUKOCYTE COUNT,[1],11.54 x10E3/uL
same,LYMPHOCYTE,[1],84.8%
same,MEAN CORPUSCULAR HEMOGLOBIN,[1],23.58 pg
same,MEAN CORPUSCULAR HEMOGLOBIN CONCENTRATION,[1],39.44 G/DL
same,MEAN CORPUSCULAR VOLUME,[1],59.76 fL
same,NEUTROPHIL,[1],13.8%
same,PLATELET COUNT,[1],1068.8 x10E3/uL
same,ALANINE AMINOTRANSFERASE,[1],38.17 u/L
same,ALBUMIN,[1],3.88 G/DL
same,ALKALINE PHOSPHATASE,[1],391.33 u/L
same,ASPARTATE AMINOTRANSFERASE,[1],69.83 u/L
same,BLOOD UREA NITROGEN,[1],15 mg/dL
same,CHLORIDE,[1],104.17 MEQ/L
same,CHOLESTEROL,[1],72.17 mg/dL
same,CREATINE PHOSPHOKINASE,[1],174.33 u/L
same,CREATININE,[1],0.58 mg/dL
same,GLUCOSE,[1],192.67 mg/dL
same,PHOSPHORUS,[1],10.52 mg/dL
same,POTASSIUM,[1],6.8 MEQ/L
same,SODIUM,[1],149.67 MEQ/L
same,TOTAL BILIRUBIN,[1],0.78 mg/dL
same,TOTAL PROTEIN,[1],6.28 G/DL
same,BASOPHIL,[2],0%
same,EOSINOPHIL,[2],0.17%
same,ERYTHROCYTE COUNT,[2],6.72 x10E6/uL
same,HEMATOCRIT,[2],40.02%
same,HEMOGLOBIN,[2],15.83 G/DL
same,LEUKOCYTE COUNT,[2],9.5 x10E3/uL
same,LYMPHOCYTE,[2],87.17%
same,MEAN CORPUSCULAR HEMOGLOBIN,[2],23.57 pg
same,MEAN CORPUSCULAR HEMOGLOBIN CONCENTRATION,[2],39.62 G/DL
same,MEAN CORPUSCULAR VOLUME,[2],59.55 fL
same,NEUTROPHIL,[2],11%
same,PLATELET COUNT,[2],1053.67 x10E3/uL
same,ALANINE AMINOTRANSFERASE,[2],26.33 u/L
same,ALBUMIN,[2],4.02 G/DL
same,ALKALINE PHOSPHATASE,[2],316.67 u/L
same,ASPARTATE AMINOTRANSFERASE,[2],61.33 u/L
same,BLOOD UREA NITROGEN,[2],18.67 mg/dL
same,CHLORIDE,[2],108 MEQ/L
same,CHOLESTEROL,[2],65.17 mg/dL
same,CREATINE PHOSPHOKINASE,[2],161.17 u/L
same,CREATININE,[2],0.75 mg/dL
same,GLUCOSE,[2],177.33 mg/dL
same,PHOSPHORUS,[2],9.72 mg/dL
same,POTASSIUM,[2],6.18 MEQ/L
same,SODIUM,[2],150.5 MEQ/L
same,TOTAL BILIRUBIN,[2],0.68 mg/dL
same,TOTAL PROTEIN,[2],6.55 G/DL
same,BASOPHIL,[3],0%
same,EOSINOPHIL,[3],0%
same,ERYTHROCYTE COUNT,[3],6.13 x10E6/uL
same,HEMATOCRIT,[3],38.1%
same,HEMOGLOBIN,[3],15.27 G/DL
same,LEUKOCYTE COUNT,[3],13.67 x10E3/uL
same,LYMPHOCYTE,[3],90%
same,MEAN CORPUSCULAR HEMOGLOBIN,[3],24.93 pg
same,MEAN CORPUSCULAR HEMOGLOBIN CONCENTRATION,[3],40.1 G/DL
same,MEAN CORPUSCULAR VOLUME,[3],62.17 fL
same,NEUTROPHIL,[3],7.67%
same,PLATELET COUNT,[3],999.33 x10E3/uL
same,ALANINE AMINOTRANSFERASE,[3],31.33 u/L
same,ALBUMIN,[3],3.77 G/DL
same,ALKALINE PHOSPHATASE,[3],390.33 u/L
same,ASPARTATE AMINOTRANSFERASE,[3],54 u/L
same,BLOOD UREA NITROGEN,[3],13.67 mg/dL
same,CHLORIDE,[3],103.67 MEQ/L
same,CHOLESTEROL,[3],59 mg/dL
same,CREATINE PHOSPHOKINASE,[3],158.67 u/L
same,CREATININE,[3],0.6 mg/dL
same,GLUCOSE,[3],179 mg/dL
same,PHOSPHORUS,[3],10.93 mg/dL
same,POTASSIUM,[3],6.37 MEQ/L
same,SODIUM,[3],148.67 MEQ/L
same,TOTAL BILIRUBIN,[3],0.6 mg/dL
same,TOTAL PROTEIN,[3],5.97 G/DL
same,BASOPHIL,[4],0%
same,EOSINOPHIL,[4],0.33%
same,ERYTHROCYTE COUNT,[4],6.82 x10E6/uL
same,HEMATOCRIT,[4],40.93%
same,HEMOGLOBIN,[4],16.13 G/DL
same,LEUKOCYTE COUNT,[4],11.33 x10E3/uL
same,LYMPHOCYTE,[4],91.67%
same,MEAN CORPUSCULAR HEMOGLOBIN,[4],23.67 pg
same,MEAN CORPUSCULAR HEMOGLOBIN CONCENTRATION,[4],39.47 G/DL
same,MEAN CORPUSCULAR VOLUME,[4],60 fL
same,NEUTROPHIL,[4],6.67%
same,PLATELET COUNT,[4],1104.33 x10E3/uL
same,ALANINE AMINOTRANSFERASE,[4],28.33 u/L
same,ALBUMIN,[4],4.03 G/DL
same,ALKALINE PHOSPHATASE,[4],320.33 u/L
same,ASPARTATE AMINOTRANSFERASE,[4],53.33 u/L
same,BLOOD UREA NITROGEN,[4],15.33 mg/dL
same,CHLORIDE,[4],106 MEQ/L
same,CHOLESTEROL,[4],70 mg/dL
same,CREATINE PHOSPHOKINASE,[4],145.33 u/L
same,CREATININE,[4],0.63 mg/dL
same,GLUCOSE,[4],170.67 mg/dL
same,PHOSPHORUS,[4],10.97 mg/dL
same,POTASSIUM,[4],6.6 MEQ/L
same,SODIUM,[4],151.67 MEQ/L
same,TOTAL BILIRUBIN,[4],0.7 mg/dL
same,TOTAL PROTEIN,[4],6.6 G/DL
same,BASOPHIL,[5],0%
same,EOSINOPHIL,[5],0%
same,ERYTHROCYTE COUNT,[5],5.99 x10E6/uL
same,HEMATOCRIT,[5],36.13%
same,HEMOGLOBIN,[5],14.37 G/DL
same,LEUKOCYTE COUNT,[5],11.03 x10E3/uL
same,LYMPHOCYTE,[5],90%
same,MEAN CORPUSCULAR HEMOGLOBIN,[5],23.97 pg
same,MEAN CORPUSCULAR HEMOGLOBIN CONCENTRATION,[5],39.77 G/DL
same,MEAN CORPUSCULAR VOLUME,[5],60.27 fL
same,NEUTROPHIL,[5],9%
same,PLATELET COUNT,[5],1243 x10E3/uL
same,ALANINE AMINOTRANSFERASE,[5],32 u/L
same,ALBUMIN,[5],3.73 G/DL
same,ALKALINE PHOSPHATASE,[5],332.67 u/L
same,ASPARTATE AMINOTRANSFERASE,[5],58 u/L
same,BLOOD UREA NITROGEN,[5],11.33 mg/dL
same,CHLORIDE,[5],103.67 MEQ/L
same,CHOLESTEROL,[5],65.67 mg/dL
same,CREATINE PHOSPHOKINASE,[5],164.67 u/L
same,CREATININE,[5],0.6 mg/dL
same,GLUCOSE,[5],180.67 mg/dL
same,PHOSPHORUS,[5],11.33 mg/dL
same,POTASSIUM,[5],6.43 MEQ/L
same,SODIUM,[5],148.33 MEQ/L
same,TOTAL BILIRUBIN,[5],0.4 mg/dL
same,TOTAL PROTEIN,[5],5.8 G/DL
same,BASOPHIL,[6],0%
same,EOSINOPHIL,[6],0.67%
same,ERYTHROCYTE COUNT,[6],6.09 x10E6/uL
same,HEMATOCRIT,[6],37.37%
same,HEMOGLOBIN,[6],14.97 G/DL
same,LEUKOCYTE COUNT,[6],13.13 x10E3/uL
same,LYMPHOCYTE,[6],81.67%
same,MEAN CORPUSCULAR HEMOGLOBIN,[6],24.6 pg
same,MEAN CORPUSCULAR HEMOGLOBIN CONCENTRATION,[6],40.1 G/DL
same,MEAN CORPUSCULAR VOLUME,[6],61.4 fL
same,NEUTROPHIL,[6],13%
same,PLATELET COUNT,[6],1107.33 x10E3/uL
same,ALANINE AMINOTRANSFERASE,[6],33.33 u/L
same,ALBUMIN,[6],3.8 G/DL
same,ALKALINE PHOSPHATASE,[6],344.67 u/L
same,ASPARTATE AMINOTRANSFERASE,[6],57.33 u/L
same,BLOOD UREA NITROGEN,[6],15.67 mg/dL
same,CHLORIDE,[6],102 MEQ/L
same,CHOLESTEROL,[6],70.33 mg/dL
same,CREATINE PHOSPHOKINASE,[6],148.33 u/L
same,CREATININE,[6],0.53 mg/dL
same,GLUCOSE,[6],178.67 mg/dL
same,PHOSPHORUS,[6],10.7 mg/dL
same,POTASSIUM,[6],6.43 MEQ/L
same,SODIUM,[6],148.33 MEQ/L
same,TOTAL BILIRUBIN,[6],0.47 mg/dL
same,TOTAL PROTEIN,[6],6.07 G/DL
